Experimental data published in patent publication EP4818168A1, “FUSED RING COMPOUND, PHARMACEUTICAL COMPOSITION THEREOF AND USE THEREOF” (priority 2023, dated 2025).
pIC50: −log10 of the molar value. Read-outs that look alike come from different tables or passages of the source.

Tests used:
[1] = molecular target: T1, AURKA (Homo sapiens, UniProt O14965); assay type: cell-based
T1 construct: endogenous in cells; host or cells: Jurkat cells
T1 sequence (O14965 1-403): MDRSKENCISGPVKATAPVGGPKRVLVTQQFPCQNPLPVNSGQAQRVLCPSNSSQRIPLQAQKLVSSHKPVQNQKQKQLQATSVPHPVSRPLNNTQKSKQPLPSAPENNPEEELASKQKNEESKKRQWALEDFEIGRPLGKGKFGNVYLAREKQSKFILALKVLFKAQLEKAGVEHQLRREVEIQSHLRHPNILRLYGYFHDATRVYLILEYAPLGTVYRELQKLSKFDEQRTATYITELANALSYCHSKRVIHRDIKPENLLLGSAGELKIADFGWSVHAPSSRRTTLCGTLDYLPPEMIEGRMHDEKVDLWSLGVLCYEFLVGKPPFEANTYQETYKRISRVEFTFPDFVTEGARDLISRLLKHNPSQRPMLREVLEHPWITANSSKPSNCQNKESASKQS
Outline: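 AURKA degradation read by western blot: band signal, fluorescent or chemiluminescent, curve-fitted to derive DC50. Cells were Jurkat, plated at 1×10^6 cells/500 µL with compound, then lysed and blotted onto nitrocellulose, primary antibody overnight at 4°C.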

[2] = test system: H82 cells; assay: cells; assay type: cell-based; details: Homo sapiens
Outline: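 After 6 days' compound treatment at 37 °C (final DMSO 0.1%, RPMI1640/10% FBS), viable H82 cells were quantified by ATP-dependent CellTiter-Glo luminescence. Remaining activity was calculated against DMSO and medium wells, and a sigmoidal fit gave IC50.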

[3] = 100 nM compound, Jurkat cells, 24 h, Table 2
[4] = 1 µM compound, Jurkat cells, 24 h, Table 2
[5] = NCI-H82, H82 cells, 4000 cells/well, CellTiter-Glo, read-out: IC50 in H82 Cells

In the case of `O=C1CCN(c2cccc(N3CCN(C4CN(c5cccc(Nc6ncc7c(n6)-c6ccc(Cl)cc6C(c6c(F)cccc6F)=NC7)c5)C4)CC3)c2)C(=O)N1` [Compound A164], the “Percentage of AURKA Degradation Induced by 100 nM Compound in Jurkat Cells” value (shortened to “Percentage … by 100 nM Compound in Jurkat Cells”) [1, 3] was “++ (30% < Degradation ≤ 70%)”, the “Percentage of AURKA Degradation Induced by 1 µM Compound in Jurkat Cells” value (shortened to “Percentage … by 1 µM Compound in Jurkat Cells”) [1, 4] was “+++ (Degradation > 70%)” and the pIC50 [2, 5] was greater than 6.00.

In the case of `O=C1CCN(c2ccc(N3CCC(N4CCN(c5ccc(Nc6ncc7c(n6)-c6ccc(Cl)cc6C(c6c(F)cccc6F)=NC7)cc5)C(=O)C4)C3)nc2)C(=O)N1` (stereo not drawn) [Compound A166], the “Percentage … by 100 nM Compound in Jurkat Cells” value [1, 3] was “+++ (Degradation > 70%)”, the “Percentage … by 1 µM Compound in Jurkat Cells” value [1, 4] was “++ (30% < Degradation ≤ 70%)” and the pIC50 [2, 5] was greater than 6.00.

In the case of `O=C1CCN(c2ccc(N3CCC4(CC3)CC(NC(=O)c3ccc(Nc5ncc6c(n5)-c5ccc(OC7CC7)cc5C(c5c(F)cccc5F)=NC6)cc3)C4)nc2)C(=O)N1` [Compound A168], the “Percentage … by 100 nM Compound in Jurkat Cells” value [1, 3] was “+++ (Degradation > 70%)”, the “Percentage … by 1 µM Compound in Jurkat Cells” value [1, 4] was “+++ (Degradation > 70%)” and the pIC50 [2, 5] was greater than 6.00.

For `O=C1CCN(c2cccc(N3CCC(N4CC(c5cccc(Nc6ncc7c(n6)-c6ccc(Cl)cc6C(c6c(F)cccc6F)=NC7)c5)C4)C3)c2)C(=O)N1` (stereo not drawn) [Compound A170], the “Percentage … by 100 nM Compound in Jurkat Cells” value [1, 3] was “+++ (Degradation > 70%)”, the “Percentage … by 1 µM Compound in Jurkat Cells” value [1, 4] was “+++ (Degradation > 70%)” and the pIC50 [2, 5] was greater than 6.00.

For `CN(C)Cc1ccc2c(c1)C(c1c(F)cccc1F)=NCc1cnc(Nc3ccc(C(=O)NC4CC5(CCN(c6ccc(N7CCC(=O)NC7=O)cn6)CC5)C4)cc3)nc1-2` [Compound A172], the “Percentage … by 100 nM Compound in Jurkat Cells” value [1, 3] was “++ (30% < Degradation ≤ 70%)”, the “Percentage … by 1 µM Compound in Jurkat Cells” value [1, 4] was “+++ (Degradation > 70%)” and the pIC50 [2, 5] was greater than 6.00.

In the case of `O=C1CCN(c2cnc(N3CCN(CCN4Cc5ccc(Nc6ncc7c(n6)-c6ccc(Cl)cc6C(c6c(F)cccc6F)=NC7)cc5C4)CC3)s2)C(=O)N1` [Compound A174], the “Percentage … by 100 nM Compound in Jurkat Cells” value [1, 3] was “++ (30% < Degradation ≤ 70%)”, the “Percentage … by 1 µM Compound in Jurkat Cells” value [1, 4] was “++ (30% < Degradation ≤ 70%)” and the pIC50 [2, 5] was greater than 6.00.

In the case of `Cc1c(N2CC(CN3CCc4ccc(Nc5ncc6c(n5)-c5ccc(Cl)cc5C(c5c(F)cccc5F)=NC6)cc4C3)C2)cccc1N1CCC(=O)NC1=O` [Compound A176], the “Percentage … by 100 nM Compound in Jurkat Cells” value [1, 3] was “+++ (Degradation > 70%)”, the “Percentage … by 1 µM Compound in Jurkat Cells” value [1, 4] was “+++ (Degradation > 70%)” and the pIC50 [2, 5] was greater than 6.00.

For `Cc1c(N2CCC(CN3CCc4ccc(Nc5ncc6c(n5)-c5ccc(Cl)cc5C(c5c(F)cccc5F)=NC6)cc4C3)CC2)cccc1N1CCC(=O)NC1=O` [Compound A178], the “Percentage … by 100 nM Compound in Jurkat Cells” value [1, 3] was “+++ (Degradation > 70%)”, the “Percentage … by 1 µM Compound in Jurkat Cells” value [1, 4] was “+++ (Degradation > 70%)” and the pIC50 [2, 5] was greater than 6.00.

For `Cc1c(N2CCC(N3Cc4ccc(Nc5ncc6c(n5)-c5ccc(Cl)cc5C(c5c(F)cccc5F)=NC6)cc4C3)CC2)cccc1N1CCC(=O)NC1=O` [Compound A179], the “Percentage … by 100 nM Compound in Jurkat Cells” value [1, 3] was “++ (30% < Degradation ≤ 70%)”, the “Percentage … by 1 µM Compound in Jurkat Cells” value [1, 4] was “++ (30% < Degradation ≤ 70%)” and the pIC50 [2, 5] was greater than 6.00.

With `Cc1c(N2CCC(CN3Cc4ccc(Nc5ncc6c(n5)-c5ccc(Cl)cc5C(c5c(F)cccc5F)=NC6)cc4C3)CC2)cccc1N1CCC(=O)NC1=O` [Compound A181] the “Percentage … by 100 nM Compound in Jurkat Cells” value [1, 3] was “+++ (Degradation > 70%)”, the “Percentage … by 1 µM Compound in Jurkat Cells” value [1, 4] was “+++ (Degradation > 70%)” and the pIC50 [2, 5] was greater than 6.00.

In the case of `O=C1CCN(c2cncc(N3CCN(C4CN(c5cccc(Nc6ncc7c(n6)-c6ccc(Cl)cc6C(c6c(F)cccc6F)=NC7)c5)C4)CC3)c2)C(=O)N1` [Compound A183], the “Percentage … by 100 nM Compound in Jurkat Cells” value [1, 3] was “+++ (Degradation > 70%)”, the “Percentage … by 1 µM Compound in Jurkat Cells” value [1, 4] was “+++ (Degradation > 70%)” and the pIC50 [2, 5] was greater than 6.00.

For `O=C1CCN(c2ccc(N3CCN(C4CCN(c5ccc(Nc6ncc7c(n6)-c6ccc(Cl)cc6C(c6c(F)cccc6F)=NC7)cc5)CC4)CC3)nc2)C(=O)N1` [Compound A185], the “Percentage … by 100 nM Compound in Jurkat Cells” value [1] was “+++ (key: +: Degradation ≤ 30%; ++: 30% < Degradation ≤ 70%; +++: Degradation > 70%)”, the “Percentage … by 1 µM Compound in Jurkat Cells” value [1] was “+++ (key: +: Degradation ≤ 30%; ++: 30% < Degradation ≤ 70%; +++: Degradation > 70%)” and the pIC50 ([2]; NCI-H82, read-out: IC50 in H82 Cells) was greater than 6.00.
